Usually viability stands for a read-out of living cells in per cent, often relative to untreated cells.

Each structure is given as a SMILES string.

These results are taken from publication PMC12040169 (PLOS Biology, 2025).

A short description of one series: in vitro. To be noted: human, hela cells, % viability.
For `O=C(CCS(=O)(=O)c1ccccc1)Nc1cc2ccccc2c(N2CCNCC2)n1` [CBK028419T], the viability at 28.5 h, 10 µM stood at 88.1%.

On to `O=C(Nc1cc2ccccc2c(N2CCNCC2)n1)c1ccccc1` [CBK028423T], for which the viability at 28.5 h, 10 µM stood at 104%.

On to `COc1ccc(CCCC(=O)NCc2ccc(OC3CCNCC3)cc2)cc1OC` [CBK028428T], for which the viability at 28.5 h, 10 µM stood at 94.9%. On the same count and under the same terms, the same measure for `COc1ccc(CCCC(=O)Nc2cncc(OC3CCNCC3)n2)cc1OC` [CBK028437T]: 87.3%; for `O=C(CCS(=O)(=O)c1ccccc1)Nc1cncc(OC2CCNCC2)n1` [CBK028438T]: 94.1%. Turning to `CN(CC(=O)Nc1cncc(OC2CCNCC2)n1)C(=O)c1ccccc1` [CBK028440T], the viability at 28.5 h, 10 µM turned out to be 105%. On the same count and under the same terms, for `O=C(Cc1c[nH]c2ccccc12)Nc1cncc(OC2CCNCC2)n1` [CBK028441T] the value was 91%. Same read-out and setting: for `CCOC(=O)CNC(=S)N[C@H]1CC[C@@]2(c3cccnc3)CCN(Cc3ccccc3)[C@H]2C1` [CBK028453] the value was 115%; for `NCCNc1cccc2c1ccn2S(=O)(=O)c1ccccc1` [CBK028470C], 80.2%; for `CN1CCN(c2cc(C(F)(F)F)c3scc(C(=O)NCCC4=CCCCC4)c3n2)CC1` [CBK028474], 110%. The same measure, in the same setting: for `CCCNC(c1ccccc1)c1ccncc1` (centres unmarked) [CBK028505] the value was 96.7%; for `CCOC(=O)N1CCC(NCC(C)(C)CN(C)C)CC1` [CBK028516], 96.2%. In the case of `COc1nc2nonc2nc1OC` [CBK028544], the viability at 28.5 h, 10 µM turned out to be 110%. On the same count and under the same terms, the same measure for `CCN(CC)C(=O)c1c(NS(=O)(=O)c2ccc(C)cc2)sc2c1CCCC2` [CBK028627]: 111%. As to `O=C(c1c(NS(=O)(=O)c2ccc3ccccc3c2)sc2c1CCCC2)N1CCOCC1` [CBK028636], the viability at 28.5 h, 10 µM amounted to 94.4%.

As to `COC(=O)c1ccc(NS(=O)(=O)c2cc(Cl)sc2Cl)cc1` [CBK028684], the viability at 28.5 h, 10 µM came to 107%. Same read-out and setting: for `Cc1nc(-c2nnc3ccc(Cl)nn23)c(Br)[nH]1` [CBK028706B] the value was 87.5%. Same read-out and setting: the same measure for `Nc1nc(Cc2ccc(F)cc2)no1` [CBK028717]: 110%; for `CCOC(=O)c1cc(C(N)=S)c(C)nc1C(F)(F)F` [CBK028734]: 92.8%. On the same count and under the same terms, the same measure for `CSc1cccc(NC(=S)N2CCCCC2CCN2CCOCC2)c1` (centres unmarked) [CBK028765]: 83.9%; for `O=C(NC(=O)N1CCSC1)c1c(Cl)cccc1Cl` [CBK028794]: 85.3%.

With `CSc1cc(-c2ccc(F)cc2)n[nH]1` [CBK028809], the viability at 28.5 h, 10 µM turned out to be 123%. Same read-out and setting: the same measure for `O=C(Nc1nccs1)c1ncn[nH]1` [CBK028821]: 102%; for `COc1ccc(-c2n[nH]c(N)n2)cc1` [CBK028843]: 116%; for `COCCNC(=O)C(C)SCc1ccccc1` (centres unmarked) [CBK028889]: 86.1%.

`CCNC(=O)/N=C(/N)Nc1nc2ccccc2s1` [CBK028890]: the viability at 28.5 h, 10 µM is 72.1%.

With `CC(C)Oc1ccc(C(F)(F)F)cc1N` [CBK028895C], the viability at 28.5 h, 10 µM stood at 105%. For `CC(C)(C)OC(=O)N[C@@H](Cc1ccccc1)CN(Cc1ccccc1)Cc1ccc(S(=O)(=O)N2CCOC2=O)cc1` [CBK028952], the viability at 28.5 h, 10 µM turned out to be 86.1%. In the case of `O=C(c1ccc(Br)o1)N1CCc2ccc(S(=O)(=O)N3CCOCC3)cc21` [CBK028953], the viability at 28.5 h, 10 µM worked out at 100%.

With `O=C(CN1CCOCC1)N1CCN(C(=O)c2ccc(Cl)cc2Cl)CC1` [CBK028992], the viability at 28.5 h, 10 µM came to 97.7%.

For `CC(C)NCC(O)COC1CCC(C(C)(C)C)CC1` (centres unmarked) [CBK029007C], the viability at 28.5 h, 10 µM was found to be 89.2%. On the same count and under the same terms, the same measure for `N#Cc1ccc(CN2C(=O)c3ccccc3C2=O)cc1` [CBK029022]: 100%. Regarding `COC(=O)c1ccc(CN2CCCC2)cc1` [CBK029023], the viability at 28.5 h, 10 µM turned out to be 106%. `O=C(Nc1cccc(N2CCNCC2)c1)c1cccnc1` [CBK029414T]: the viability at 28.5 h, 10 µM was determined as 94.6%. Still for that read-out and setting: for `O=C(Nc1cccc(N2CCNCC2)c1)c1ccnc2ccccc12` [CBK029416T] the value was 95.5%; for `O=C(Nc1cccnc1N1CCNCC1)c1ccoc1` [CBK029417T], 95.4%. Same read-out and setting: for `O=C(Nc1cccnc1N1CCNCC1)c1cc(F)cc(F)c1` [CBK029420T] the value was 92.3%.

For the compound `O=C(Nc1cccnc1N1CCNCC1)c1cccnc1` [CBK029426T], the viability at 28.5 h, 10 µM amounted to 120%. Still for that read-out and setting: for `O=C(Nc1ccc(N2CCNCC2)nc1)c1cnccn1` [CBK029436T] the value was 126%. Still for that read-out and setting: the same measure for `O=C(Nc1ccc(N2CCNCC2)nc1)c1cccnc1` [CBK029439T]: 95.1%; for `O=C(Nc1ccccc1N1CCNCC1)c1ccoc1` [CBK029442T]: 96.2%.

For the compound `COc1ccc(C(=O)Nc2ccccc2N2CCNCC2)cc1` [CBK029447T], the viability at 28.5 h, 10 µM turned out to be 107%.

As for `Cn1cccc1C(=O)Nc1ccccc1N1CCNCC1` [CBK029450T], the viability at 28.5 h, 10 µM is 95.4%.

Take `O=C(NCc1ccccc1OC1CCNC1)c1ccccn1` (centres unmarked) [CBK029464T]: the viability at 28.5 h, 10 µM came to 91.6%.

Turning to `Cc1cccc(CN(CCCN)C(=O)Nc2ccc(C(C)(C)C)cc2)n1` [CBK033365C], the viability at 28.5 h, 10 µM was found to be 98.3%. On the same count and under the same terms, for `COc1cc(NC(=O)c2cccnc2)c(Cl)cc1NC(=O)c1ccc(Cl)cc1` [CBK033522] the value was 98.2%; for `COc1cc(NC(=O)Cn2nc([N+](=O)[O-])c(Cl)c2C)c(OC)cc1Cl` [CBK033535], 97.9%. On the same count and under the same terms, for `COc1ccc(-c2cc(C(=O)Nc3nc4ccc(S(C)(=O)=O)cc4s3)c3ccccc3n2)cc1` [CBK033551] the value was 95.9%; for `CCOc1ccc(NC(=O)c2ccc(CN3CCOCC3)cc2)cc1` [CBK033557], 89.7%.

Consider `COc1ccc(CN2CCN(C(=O)c3ccccc3F)CC2)c(OC)c1` [CBK033601], for which the viability at 28.5 h, 10 µM was 125%.

As for `COc1cccc(CN2CCN(Cc3cc(OC)cc(OC)c3)CC2)c1` [CBK033622], the viability at 28.5 h, 10 µM was 91.2%. Regarding `Cc1ccc(Cl)cc1N(Cc1ccc(C(=O)N2CCC(C)CC2)cc1)S(=O)(=O)c1ccccc1` [CBK033646], the viability at 28.5 h, 10 µM was determined as 107%.

Regarding `Oc1ccc(SCCCCN2CCCCC2)cc1` [CBK033676], the viability at 28.5 h, 10 µM stood at 110%. The same measure, in the same setting: the same measure for `Cc1ccc2nsnc2c1NC(=O)COc1ccc([N+](=O)[O-])cc1` [CBK033705]: 95.6%. Turning to `O=C(CCN1CCN(CCO)CC1)Nc1ccc(Cl)cc1` [CBK033787], the viability at 28.5 h, 10 µM turned out to be 101%.

In the case of `CC(=O)c1ccc(N(C)C)cc1` [CBK033830], the viability at 28.5 h, 10 µM stood at 106%. Same read-out and setting: for `CCOC(=O)N1CCN(CC(O)COc2cc(C)c(Cl)c(C)c2)CC1` (centres unmarked) [CBK033833C] the value was 88.9%; for `CC(Nc1cc(N2CCN(CCO)CC2)ccc1[N+](=O)[O-])c1ccccc1` (centres unmarked) [CBK033838], 106%; for `O=C(OCCN1CCOCC1)c1ccccc1I` [CBK033860], 95.4%. On the same count and under the same terms, for `CCC(=O)c1cc(F)c(N2CCN(C(=O)c3cccs3)CC2)cc1C` [CBK033892] the value was 104%. On the same count and under the same terms, the same measure for `CC(=O)c1ccc(NC(=O)c2cccc(Cl)c2)cc1` [CBK033939]: 89.3%; for `Cc1cc(=O)oc2cc(OC(=O)C(Cc3ccccc3)N3C(=O)c4ccccc4C3=O)ccc12` (centres unmarked) [CBK033943]: 91.1%; for `COc1cc2c(cc1OC)CN(Cc1ccc(OCc3ccccc3)c(OC)c1)CC2` [CBK033974]: 93%. On to `COc1ccc2c(ccn2S(=O)(=O)c2ccc(N3CCNCC3)c(C(F)(F)F)c2)c1` [CBK034033C], for which the viability at 28.5 h, 10 µM stood at 89.3%. Still for that read-out and setting: the same measure for `Cc1c(Cl)cccc1S(=O)(=O)Nc1ccc(C(=O)O)cc1` [CBK034050]: 86.4%; for `O=C(O)c1ccc(NS(=O)(=O)Cc2ccccc2[N+](=O)[O-])cc1` [CBK034054]: 90.4%. Still for that read-out and setting: for `Cc1ccc(S(=O)(=O)Nc2ccc(C(=O)O)cc2)cc1` [CBK034060] the value was 85.3%; for `O=C(O)c1ccc(NS(=O)(=O)Cc2ccccc2)cc1` [CBK034061], 105%. On the same count and under the same terms, for `O=C(O)c1ccc(NS(=O)(=O)/C=C/c2ccccc2)cc1` [CBK034062] the value was 100%; for `O=C(O)c1ccc(NS(=O)(=O)c2ccc(C(F)(F)F)cc2[N+](=O)[O-])cc1` [CBK034063], 113%. Regarding `O=C(Nc1cccc(N2CCNCC2)c1)c1coc2c1C(=O)CCC2` [CBK034113T], the viability at 28.5 h, 10 µM is 87.2%. Turning to `COc1ccc(/C=C(\C)C(=O)Nc2cccc(N3CCNCC3)c2)cc1OC` [CBK034115T], the viability at 28.5 h, 10 µM stood at 90.1%. Still for that read-out and setting: the same measure for `Cc1oc(-c2ccccc2)cc1C(=O)Nc1ccc(N2CCNCC2)nc1` [CBK034127T]: 80.3%; for `O=C(/C=C/c1cccnc1)Nc1cccc(N2CCNCC2)c1` [CBK034128T]: 109%. Regarding `O=C(NCc1ccccc1OC1CCNC1)c1ccc(-c2cccc(C(F)(F)F)c2)o1` (centres unmarked) [CBK034151T], the viability at 28.5 h, 10 µM is 101%. With `COc1ccc(/C=C(\C)C(=O)NCc2ccccc2OC2CCNC2)cc1OC` (centres unmarked) [CBK034157T], the viability at 28.5 h, 10 µM is 90%. The same measure, in the same setting: the same measure for `Cc1noc(C)c1CS(=O)(=O)Cc1ccc(Cl)cc1` [CBK034194]: 84.9%; for `Cc1noc(C)c1C[S+]([O-])c1ccc(Br)cc1` (centres unmarked) [CBK034195]: 95.6%; for `O=C(O)c1ccc(CCN2CCCC2)nc1` [CBK034220]: 107%. Consider `Cc1ccc(NC(=O)CSc2nnc(N)[nH]2)cc1` [CBK034301], for which the viability at 28.5 h, 10 µM turned out to be 110%. Same read-out and setting: for `C/C=N\n1c(CO)nnc1CO` [CBK034325] the value was 86.5%.

With `CC(=O)Nc1c(C)ccc(S(=O)(=O)N2CCOCC2)c1C` [CBK034327], the viability at 28.5 h, 10 µM worked out at 98.6%.

Staying with this series, now noted: human, hela cells, % viability, bulk resorufin, single well.
On to `CSc1ccc(C(=O)C(C)(C)N2CCOCC2)cc1` [CBK028870], for which the viability at 28.5 h, 10 µM is 107%.
